Earlier results in patent US9442092B2, “Methods for treatment of autism” (priority 2011, dated 2016).

Tests used:
[1] = test system: HIV
[2] = in vivo

SMILES | Increase of HIV levels [1] [%] | Association with Autism [2]
COc1cc2c(c3oc(=O)c4c(c13)CCC4=O)[C@@H]1C=CO[C@@H]1O2 [Aflatoxin] | 500 | 
CC(C)Cc1ccc(C(C)C(=O)O)cc1 (stereo not drawn) [Ibuprofen] |  | no association
CN1C(=O)[C@]23CC4=CC=C[C@H](O)[C@H]4N2C(=O)[C@@]1(CO)SS3 [gliotoxin, Gliotoxin] | 500 | 
